Results: patent publication US8859768B2, “Heteroaryls and uses thereof” (Millennium Pharmaceuticals, Inc., priority 2010, dated 2014)

Target: T1, Human VPS34 (Homo sapiens, UniProt Q8NEB9)
T1 construct: GST (N); host or cells: SF9 insect cells (baculovirus)
Assay: Human VPS34 Enzyme Assay (Adapta TR-FRET)
Assay type: biochemical
Conditions: compound at 1.111 μM; read-out: Average VPS34 % INH @ 1.111 μM
Experimental: VPS34 (accession number GB:BC033004) was cloned into pDEST20-Thombin as N-terminal GST tagged fusion proteins using the Gateway system (Invitrogen, catalog#11804-013). The sequences were verified before recombinant protein expression using the Baculovirus Expression System with Gateway® Technology.
For expression VPS34 was infected at 1MOI in SF9 cells and harvested 72 hours post infection.
For purification, VPS34 is purified by Glutathione Sepharose 4 Fast Flow (GE Healthcare #17-5132-03) followed by HiTrap Q (GE Healthcare #17-1153-01).
Human VPS34 Enzyme Assay Method
100 nL compounds in DMSO are added to wells of a 384 well microtitre plate (Greiner 780076). At room temperature: 5 ul VPS34 reaction buffer (Invitrogen Assay Buffer Q (diluted 1 in 5 with nanopure water) plus 2 mM DTT and 2 mM MnCl2) containing ATP (20 uM, Promega) and 200 uM PI-PS substrate (Invitrogen PV5122) is added followed immediately by 5 ul VPS34 reaction buffer (as above) containing VPS34 (5 nM, Millennium Protein Sciences Group) and the mixture is incubated with shaking at room temperature for 1 hour. Then 5 ul VPS34 stop-detect mix (as per Invitrogen Adapta Assay kit (PV5009) instructions (contains kinase quench buffer, TR-FRET buffer, Adapta Eu anti-ADP antibody and Alexa Fluor 647 ADP tracer)) is added to quench the reaction. The plates are then incubated for 30 minutes at room temperature with shaking and then read on a BMG PheraStar Plus reader.
3) VPS34 is assayed using Adapta™ Universal Kinase Assay Kit (Invitrogen).

T1 sequence (Q8NEB9 whole entry): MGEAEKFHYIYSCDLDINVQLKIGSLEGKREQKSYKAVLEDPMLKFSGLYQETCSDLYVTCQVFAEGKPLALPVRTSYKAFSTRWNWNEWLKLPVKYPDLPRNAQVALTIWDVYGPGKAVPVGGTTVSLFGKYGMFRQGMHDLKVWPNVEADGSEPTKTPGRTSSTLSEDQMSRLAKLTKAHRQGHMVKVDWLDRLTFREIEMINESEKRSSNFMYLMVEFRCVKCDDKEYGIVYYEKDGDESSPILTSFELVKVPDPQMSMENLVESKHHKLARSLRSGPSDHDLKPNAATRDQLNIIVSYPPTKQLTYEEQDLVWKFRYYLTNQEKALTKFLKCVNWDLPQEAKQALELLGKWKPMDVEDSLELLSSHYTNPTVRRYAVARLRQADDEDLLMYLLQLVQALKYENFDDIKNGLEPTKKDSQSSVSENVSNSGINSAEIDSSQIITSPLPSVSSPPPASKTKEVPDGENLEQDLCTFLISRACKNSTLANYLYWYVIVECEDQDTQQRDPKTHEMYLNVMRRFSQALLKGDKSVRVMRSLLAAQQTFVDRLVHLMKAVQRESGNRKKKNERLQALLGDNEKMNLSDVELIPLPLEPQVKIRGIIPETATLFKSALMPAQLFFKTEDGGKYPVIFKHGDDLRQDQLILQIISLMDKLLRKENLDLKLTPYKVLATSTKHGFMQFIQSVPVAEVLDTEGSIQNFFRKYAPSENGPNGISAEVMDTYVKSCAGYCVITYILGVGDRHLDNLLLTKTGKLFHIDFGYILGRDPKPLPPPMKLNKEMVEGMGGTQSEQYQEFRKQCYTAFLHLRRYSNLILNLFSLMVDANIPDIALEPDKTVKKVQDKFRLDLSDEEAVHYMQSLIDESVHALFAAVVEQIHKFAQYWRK

inhibition at 1.111 µM	SMILES
56%	CC(=O)Nc1cc(-c2nc(C(=O)Nc3cnccn3)c(-c3ccccc3Cl)o2)c(C)cn1 [Compound I-31, 2-(2-acetamido-5-methylpyridin-4-yl)-5-(2-chlorophenyl)-N-(pyrazin-2-yl)-1,3-oxazole-4-carboxamide]
128%	CC(=O)Nc1cc(-c2cc(C(=O)NCCOCCO)c(-c3ccccc3Cl)o2)c(C)cn1 [Compound I-34, 5-(2-acetamido-5-methylpyridin-4-yl)-2-(2-chlorophenyl)-N-[2-(2-hydroxyethoxy)ethyl]-3-furamide]
43%	CC(=O)Nc1cc(-c2nc(C(=O)NCc3cccs3)c(-c3ccccc3Cl)o2)c(C)cn1 [Compound I-38, 2-(2-acetamido-5-methylpyridin-4-yl)-5-(2-chlorophenyl)-N-(2-thienylmethyl)-1,3-oxazole-4-carboxamide]
90%	CC(=O)Nc1cc(-c2cc(C(=O)NCCc3cn4ccccc4n3)c(-c3ccccc3Cl)o2)c(C)cn1 [Compound I-41, 5-(2-acetamido-5-methylpyridin-4-yl)-2-(2-chlorophenyl)-N-[2-(imidazo[1,2-a]pyridin-2-yl)ethyl]-3-furamide]
117%	CC(=O)Nc1cc(-c2cc(C(=O)NCc3cccs3)c(-c3ccccc3Cl)o2)c(C)cn1 [Compound I-42, 5-(2-acetamido-5-methylpyridin-4-yl)-2-(2-chlorophenyl)-N-(2-thienylmethyl)-3-furamide]
150%	CC(=O)Nc1cc(-c2cc(C(=O)NCc3ccccn3)c(-c3ccccc3Cl)o2)c(C)cn1 [Compound I-44, 5-(2-acetamido-5-methylpyridin-4-yl)-2-(2-chlorophenyl)-N-(pyridin-2-ylmethyl)-3-furamide]
89%	CON(C)C(=O)c1cc(-c2cc(NC(C)=O)ncc2C)oc1-c1ccccc1Cl [Compound I-46, 5-(2-acetamido-5-methylpyridin-4-yl)-2-(2-chlorophenyl)-N-methoxy-N-methyl-3-furamide]
130%	CC(=O)Nc1cc(-c2cc(-c3cc[nH]n3)c(-c3ccccc3Cl)o2)c(C)cn1 [Compound I-48, N-{4-[5-(2-chlorophenyl)-4-(1H-pyrazol-3-yl)-2-furyl]-5-methylpyridin-2-yl}acetamide]
117%	CNC(=O)c1nc(-c2cc(NC(C)=O)ncc2C)oc1-c1ccccc1Cl [Compound I-52, 2-(2-acetamido-5-methylpyridin-4-yl)-5-(2-chlorophenyl)-N-methyl-1,3-oxazole-4-carboxamide]
104%	CC(=O)Nc1cc(-c2cc(C(=O)NCc3ccccc3)c(-c3ccccc3Cl)o2)c(C)cn1 [Compound I-53, 5-(2-acetamido-5-methylpyridin-4-yl)-N-benzyl-2-(2-chlorophenyl)-3-furamide]
152%	CNC(=O)c1cc(-c2cc(NC(C)=O)ncc2C)oc1-c1ccccc1Cl [Compound I-54, 5-(2-acetamido-5-methylpyridin-4-yl)-2-(2-chlorophenyl)-N-methyl-3-furamide]
20%	CC(=O)Nc1cc(-c2nc(C(=O)NCc3ccccc3)c(-c3ccccc3Cl)o2)c(C)cn1 [Compound I-55, 2-(2-acetamido-5-methylpyridin-4-yl)-N-benzyl-5-(2-chlorophenyl)-1,3-oxazole-4-carboxamide]
139%	CC(=O)Nc1cc(-c2cc(C(=O)O)c(-c3ccccc3Cl)o2)c(C)cn1 [Compound I-56, 5-(2-acetamido-5-methylpyridin-4-yl)-2-(2-chlorophenyl)-3-furoic acid]
101%	CCNC(=O)c1nc(-c2cc(NC(C)=O)ncc2C)oc1-c1ccccc1Cl [Compound I-59, 2-(2-acetamido-5-methylpyridin-4-yl)-5-(2-chlorophenyl)-N-ethyl-1,3-oxazole-4-carboxamide]
96%	CC(=O)Nc1cc(-c2cc(C(=O)N(C)C)c(-c3ccccc3Cl)o2)c(C)cn1 [Compound I-61, 5-(2-acetamido-5-methylpyridin-4-yl)-2-(2-chlorophenyl)-N,N-dimethyl-3-furamide]

Further lines, the molecule ahead of its results:

SMILES	inhibition at 1.111 µM
Nc1cc(-c2nc(-c3nnc[nH]3)c(-c3ccccc3Cl)o2)ccn1 [Compound I-32, 4-[5-(2-chlorophenyl)-4-(4H-1,2,4-triazol-3-yl)-1,3-oxazol-2-yl]pyridin-2-amine]	26%
CC(=O)Nc1cc(-c2nc(-c3ccccc3Cl)c(-c3ncco3)o2)c(C)cn1 [Compound I-33, N-{4-[4′-(2-chlorophenyl)-2,5′-bi-1,3-oxazol-2′-yl]-5-methylpyridin-2-yl}acetamide]	102%
COC(=O)Nc1cc(-c2nc(-c3nnc[nH]3)c(-c3ccccc3Cl)o2)c(C)cn1 [Compound I-35, methyl {4-[5-(2-chlorophenyl)-4-(4H-1,2,4-triazol-3-yl)-1,3-oxazol-2-yl]-5-methylpyridin-2-yl}carbamate]	117%
CC(=O)Nc1cc(-c2cc(-c3nnc[nH]3)c(-c3cc(CN4CCCC4)ccc3Cl)o2)c(C)cn1 [Compound I-36, N-(4-{5-[2-chloro-5-(pyrrolidin-1-ylmethyl)phenyl]-4-(4H-1,2,4-triazol-3-yl)-2-furyl}-5-methylpyridin-2-yl)acetamide]	129%
O=C(Cn1cccn1)Nc1cc(-c2nc(-c3nnc[nH]3)c(-c3ccccc3Cl)o2)ccn1 [Compound I-37, N-{4-[5-(2-chlorophenyl)-4-(4H-1,2,4-triazol-3-yl)-1,3-oxazol-2-yl]pyridin-2-yl}-2-(1H-pyrazol-1-yl)acetamide]	117%
CC(=O)Nc1cc(-c2nc(-c3ccccc3Cl)c(-c3nnc[nH]3)o2)c(C)cn1 [Compound I-39, N-{4-[4-(2-chlorophenyl)-5-(4H-1,2,4-triazol-3-yl)-1,3-oxazol-2-yl]-5-methylpyridin-2-yl}acetamide]	125%
CC(=O)Nc1cc(-c2nc(-c3cc(CN(C)C)ccc3Cl)c(-c3nnc[nH]3)o2)c(C)cn1 [Compound I-40, N-{4-[4-{2-chloro-5-[(dimethylamino)methyl]phenyl}-5-(4H-1,2,4-triazol-3-yl)-1,3-oxazol-2-yl]-5-methylpyridin-2-yl}acetamide]	115%
C=CCCC(=O)Nc1cc(-c2nc(-c3nnc[nH]3)c(-c3ccccc3Cl)o2)ccn1 [Compound I-43, N-{4-[5-(2-chlorophenyl)-4-(4H-1,2,4-triazol-3-yl)-1,3-oxazol-2-yl]pyridin-2-yl}pent-4-enamide]	98%
COCCC(=O)Nc1cc(-c2nc(-c3nnc[nH]3)c(-c3ccccc3Cl)o2)ccn1 [Compound I-45, N-{4-[5-(2-chlorophenyl)-4-(4H-1,2,4-triazol-3-yl)-1,3-oxazol-2-yl]pyridin-2-yl}-3-methoxypropanamide]	104%
CC(=O)Nc1cc(-c2nc(C(=O)NCc3cccnc3)c(-c3ccccc3Cl)o2)c(C)cn1 [Compound I-47, 2-(2-acetamido-5-methylpyridin-4-yl)-5-(2-chlorophenyl)-N-(pyridin-3-ylmethyl)-1,3-oxazole-4-carboxamide]	31%
Clc1ccccc1-c1oc(-c2ccncc2)nc1-c1nnc[nH]1 [Compound I-49, 4-[5-(2-chlorophenyl)-4-(4H-1,2,4-triazol-3-yl)-1,3-oxazol-2-yl]pyridine]	19%
CC(=O)Nc1cc(-c2nc(N3CCCS3(=O)=O)c(-c3nnc[nH]3)o2)c(C)cn1 [Compound I-50, N-{4-[4-(1,1-dioxidoisothiazolidin-2-yl)-5-(4H-1,2,4-triazol-3-yl)-1,3-oxazol-2-yl]-5-methylpyridin-2-yl}acetamide]	115%
CC(=O)Nc1cc(-c2nc(-c3cc(CN4CCCC4)ccc3Cl)c(C(=O)O)o2)c(C)cn1 [Compound I-51, 2-(2-acetamido-5-methylpyridin-4-yl)-4-[2-chloro-5-(pyrrolidin-1-ylmethyl)phenyl]-1,3-oxazole-5-carboxylic acid]	131%
CC(=O)Nc1cc(-c2nc(-c3ccccc3Cl)c(-c3cc[nH]n3)o2)c(C)cn1 [Compound I-57, N-{4-[4-(2-chlorophenyl)-5-(1H-pyrazol-3-yl)-1,3-oxazol-2-yl]-5-methylpyridin-2-yl}acetamide]	135%
O=C(Cc1ccc(O)cc1)Nc1cc(-c2nc(-c3nnc[nH]3)c(-c3ccccc3Cl)o2)ccn1 [Compound I-58, N-{4-[5-(2-chlorophenyl)-4-(4H-1,2,4-triazol-3-yl)-1,3-oxazol-2-yl]pyridin-2-yl}-2-(4-hydroxyphenyl)acetamide]	94%
CC(=O)Nc1cc(-c2nc(-c3nccs3)c(-c3ccccc3Cl)o2)c(C)cn1 [Compound I-60, N-{4-[5-(2-chlorophenyl)-4-(1,3-thiazol-2-yl)-1,3-oxazol-2-yl]-5-methylpyridin-2-yl}acetamide]	122%
CC(=O)Nc1cc(-c2nc(C(=O)NCCCn3ccnc3)c(-c3ccccc3Cl)o2)c(C)cn1 [Compound I-63, 2-(2-acetamido-5-methylpyridin-4-yl)-5-(2-chlorophenyl)-N-[3-(1H-imidazol-1-yl)propyl]-1,3-oxazole-4-carboxamide]	14%
